Test results from ChEMBL document CHEMBL1135692, “Structure-activity relationships of the melanocortin tetrapeptide Ac-His-D-Phe-Arg-Trp-NH2 at the mouse melanocortin receptors. 4. Modifications at the Trp position” (J Med Chem, 2002).
pEC50: −log10 of the molar value.

The compounds below were run against Melanocortin receptor 4 (Mus musculus, UniProt P56450) (assay: Activity in mouse melanocortin-4 receptor stably expressed in HEK293 cells). Conditions: not given.
Format: cell-based

Chain of Melanocortin receptor 4 (P56450 whole entry): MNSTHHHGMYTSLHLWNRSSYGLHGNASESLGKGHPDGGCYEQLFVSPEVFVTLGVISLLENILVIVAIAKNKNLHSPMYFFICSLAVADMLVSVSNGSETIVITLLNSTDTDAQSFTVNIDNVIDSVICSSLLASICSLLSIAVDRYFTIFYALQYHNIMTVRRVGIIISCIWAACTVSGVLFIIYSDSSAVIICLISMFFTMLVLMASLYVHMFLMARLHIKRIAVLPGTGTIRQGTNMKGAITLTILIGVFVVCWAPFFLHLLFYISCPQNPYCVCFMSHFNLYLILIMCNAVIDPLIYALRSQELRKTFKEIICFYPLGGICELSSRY

pEC50 | Structure (SMILES)
4.52 | CC(=O)N[C@@H](Cc1cnc[nH]1)C(=O)NC(Cc1ccccc1)C(=O)N[C@@H](CCCNC(=N)N)C(=O)N[C@H](Cc1ccncc1)C(N)=O (stereo in doubt) [listing 1 of 2 here]
5.46 | CC(=O)N[C@@H](Cc1c[nH]cn1)C(=O)N[C@H](Cc1ccccc1)C(=O)N[C@@H](CCCN=C(N)N)C(=O)N[C@@]1(C(N)=O)CCc2ccccc2C1 (stereo in doubt; 20)
5.06 | CC(=O)N[C@@H](Cc1c[nH]cn1)C(=O)N[C@H](Cc1ccccc1)C(=O)N[C@@H](CCCN=C(N)N)C(=O)N[C@@]1(C(N)=O)CCc2ccccc2C1 (stereo in doubt; 21)

Same assay, conditions: hek293

pEC50 | Structure (SMILES)
7.76 | CC(=O)N[C@@H](Cc1cnc[nH]1)C(=O)NC(Cc1ccccc1)C(=O)N[C@@H](CCCNC(=N)N)C(=O)NC(Cc1c[nH]c2ccccc12)C(N)=O (stereo in doubt)

These compounds were tested against Melanocortin receptor 3 (Mus musculus, UniProt P33033) (assay: Activity in mouse melanocortin-3 receptor (mMC3R) stably expressed in HEK293 cells). Conditions: not given.
Format: cell-based

Chain of Melanocortin receptor 3 (P33033 whole entry): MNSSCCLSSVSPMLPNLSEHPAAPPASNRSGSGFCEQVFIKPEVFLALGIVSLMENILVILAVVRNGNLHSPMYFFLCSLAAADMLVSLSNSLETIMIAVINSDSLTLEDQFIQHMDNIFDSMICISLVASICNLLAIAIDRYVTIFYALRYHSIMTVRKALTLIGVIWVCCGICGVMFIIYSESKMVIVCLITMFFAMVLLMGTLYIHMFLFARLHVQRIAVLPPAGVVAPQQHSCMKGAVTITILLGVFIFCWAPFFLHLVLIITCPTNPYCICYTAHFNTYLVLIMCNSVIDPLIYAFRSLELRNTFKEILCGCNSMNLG

pEC50 | Structure (SMILES)
4.27 | CC(=O)N[C@@H](Cc1c[nH]cn1)C(=O)N[C@@H](Cc1ccccc1)C(=O)N[C@@H](CCCN=C(N)N)C(=O)N[C@@H](C(N)=O)C(c1ccccc1)c1ccccc1
4.57 | CC(=O)N[C@@H](Cc1c[nH]cn1)C(=O)N[C@@H](Cc1ccccc1)C(=O)N[C@@H](CCCN=C(N)N)C(=O)N[C@H](Cc1ccccc1)C(N)=O
5.43 | CC(=O)N[C@@H](Cc1cnc[nH]1)C(=O)NC(Cc1ccccc1)C(=O)N[C@@H](CCCNC(=N)N)C(=O)N[C@H](Cc1csc2ccccc12)C(N)=O (stereo in doubt)
5.46 | CC(=O)N[C@@H](Cc1cnc[nH]1)C(=O)NC(Cc1ccccc1)C(=O)N[C@@H](CCCNC(=N)N)C(=O)N[C@H](Cc1cccc2ccccc12)C(N)=O (stereo in doubt)
4.82 | CC(=O)N[C@@H](Cc1c[nH]cn1)C(=O)NC(Cc1ccccc1)C(=O)N[C@@H](CCCN=C(N)N)C(=O)NC(Cc1ccccc1)C(N)=O (stereo in doubt)
4.66 | CC(=O)N[C@@H](Cc1cnc[nH]1)C(=O)NC(Cc1ccccc1)C(=O)N[C@@H](CCCNC(=N)N)C(=O)N[C@@H](Cc1cccc2ccccc12)C(N)=O (stereo in doubt)
5.79 | CC(=O)N[C@@H](Cc1c[nH]cn1)C(=O)NC(Cc1ccccc1)C(=O)N[C@@H](CCCN=C(N)N)C(=O)NC(Cc1ccc2ccccc2c1)C(N)=O (stereo in doubt)
4.87 | CC(=O)N[C@@H](Cc1c[nH]cn1)C(=O)NC(Cc1ccccc1)C(=O)N[C@@H](CCCN=C(N)N)C(=O)N[C@H](Cc1ccc(-c2ccccc2)cc1)C(N)=O (stereo in doubt)
4.79 | CC(=O)N[C@@H](Cc1cnc[nH]1)C(=O)NC(Cc1ccccc1)C(=O)N[C@@H](CCCNC(=N)N)C(=O)N[C@@H](Cc1ccc(-c2ccccc2)cc1)C(N)=O (stereo in doubt)
4.52 | CC(=O)N[C@@H](Cc1cnc[nH]1)C(=O)NC(Cc1ccccc1)C(=O)N[C@@H](CCCNC(=N)N)C(=O)N[C@H](Cc1cccs1)C(N)=O (stereo in doubt)
< 4.00 | CC(=O)N[C@@H](Cc1cnc[nH]1)C(=O)NC(Cc1ccccc1)C(=O)N[C@@H](CCCNC(=N)N)C(=O)N[C@H](Cc1cnc[nH]1)C(N)=O (stereo in doubt)
6.13 | CC(=O)N[C@@H](Cc1c[nH]cn1)C(=O)NC(Cc1ccccc1)C(=O)N[C@@H](CCCN=C(N)N)C(=O)N[C@H](Cc1ccc2ccccc2c1)C(N)=O (stereo in doubt)
4.80 | CC(=O)N[C@@H](Cc1cnc[nH]1)C(=O)NC(Cc1ccccc1)C(=O)N[C@@H](CCCNC(=N)N)C(=O)NC(C(N)=O)C(c1ccccc1)c1ccccc1 (stereo in doubt)
< 4.00 | CC(=O)N[C@@H](Cc1cnc[nH]1)C(=O)NC(Cc1ccccc1)C(=O)N[C@@H](CCCNC(=N)N)C(=O)N[C@H](Cc1ccncc1)C(N)=O (stereo in doubt) [listing 2 of 2 here]
5.00 | CC(=O)N[C@@H](Cc1c[nH]cn1)C(=O)N[C@H](Cc1ccccc1)C(=O)N[C@@H](CCCN=C(N)N)C(=O)N[C@@]1(C(N)=O)CCc2ccccc2C1 (stereo in doubt; 20)
4.47 | CC(=O)N[C@@H](Cc1c[nH]cn1)C(=O)N[C@H](Cc1ccccc1)C(=O)N[C@@H](CCCN=C(N)N)C(=O)N[C@@]1(C(N)=O)CCc2ccccc2C1 (stereo in doubt; 21)

These compounds were tested against Melanocyte-stimulating hormone receptor (Mus musculus, UniProt Q01727) (assay: Activity in mouse melanocortin-1 receptor stably expressed in HEK293 cells). Conditions: not given.
Format: cell-based

Chain of Melanocyte-stimulating hormone receptor (Q01727 whole entry): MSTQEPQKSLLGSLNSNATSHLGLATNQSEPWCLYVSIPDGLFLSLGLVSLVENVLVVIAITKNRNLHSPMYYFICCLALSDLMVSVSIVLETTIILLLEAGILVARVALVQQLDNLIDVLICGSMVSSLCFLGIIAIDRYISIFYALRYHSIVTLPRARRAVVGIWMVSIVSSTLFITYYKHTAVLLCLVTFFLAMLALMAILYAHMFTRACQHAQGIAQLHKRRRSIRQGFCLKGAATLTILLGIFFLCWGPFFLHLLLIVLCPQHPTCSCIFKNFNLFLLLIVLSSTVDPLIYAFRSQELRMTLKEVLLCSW

pEC50 | Structure (SMILES)
5.65 | CC(=O)N[C@@H](Cc1cnc[nH]1)C(=O)NC(Cc1ccccc1)C(=O)N[C@@H](CCCNC(=N)N)C(=O)N[C@H](Cc1ccncc1)C(N)=O (stereo in doubt) [listing 1 of 2 here]
6.15 | CC(=O)N[C@@H](Cc1c[nH]cn1)C(=O)N[C@H](Cc1ccccc1)C(=O)N[C@@H](CCCN=C(N)N)C(=O)N[C@@]1(C(N)=O)CCc2ccccc2C1 (stereo in doubt; 20)
6.17 | CC(=O)N[C@@H](Cc1c[nH]cn1)C(=O)N[C@H](Cc1ccccc1)C(=O)N[C@@H](CCCN=C(N)N)C(=O)N[C@@]1(C(N)=O)CCc2ccccc2C1 (stereo in doubt; 21)

Each compound was assayed against Melanocortin receptor 5 (Mus musculus, UniProt P41149) (assay: Activity in mouse melanocortin-5 receptor stably expressed in HEK293 cells). Conditions: not given.
Format: cell-based

Chain of Melanocortin receptor 5 (P41149 whole entry): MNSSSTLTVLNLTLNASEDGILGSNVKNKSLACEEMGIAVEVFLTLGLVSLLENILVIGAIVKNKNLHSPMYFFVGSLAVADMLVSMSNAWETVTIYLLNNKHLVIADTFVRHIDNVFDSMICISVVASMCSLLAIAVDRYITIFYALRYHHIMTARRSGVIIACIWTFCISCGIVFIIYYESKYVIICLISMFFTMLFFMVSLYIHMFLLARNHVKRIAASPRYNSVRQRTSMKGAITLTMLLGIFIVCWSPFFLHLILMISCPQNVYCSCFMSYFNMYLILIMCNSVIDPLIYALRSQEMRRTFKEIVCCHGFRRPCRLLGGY

pEC50 | Structure (SMILES)
4.84 | CC(=O)N[C@@H](Cc1cnc[nH]1)C(=O)NC(Cc1ccccc1)C(=O)N[C@@H](CCCNC(=N)N)C(=O)N[C@H](Cc1ccncc1)C(N)=O (stereo in doubt) [listing 1 of 2 here]
6.74 | CC(=O)N[C@@H](Cc1c[nH]cn1)C(=O)N[C@H](Cc1ccccc1)C(=O)N[C@@H](CCCN=C(N)N)C(=O)N[C@@]1(C(N)=O)CCc2ccccc2C1 (stereo in doubt; 20)
6.02 | CC(=O)N[C@@H](Cc1c[nH]cn1)C(=O)N[C@H](Cc1ccccc1)C(=O)N[C@@H](CCCN=C(N)N)C(=O)N[C@@]1(C(N)=O)CCc2ccccc2C1 (stereo in doubt; 21)

Same assay, conditions: hek293

pEC50 | Structure (SMILES)
8.40 | CC(=O)N[C@@H](Cc1cnc[nH]1)C(=O)NC(Cc1ccccc1)C(=O)N[C@@H](CCCNC(=N)N)C(=O)NC(Cc1c[nH]c2ccccc12)C(N)=O (stereo in doubt)
